What follows are molecules tested against T1, ATP-citrate synthase (Homo sapiens, UniProt P53396) (assay: Inhibition of ACL (unknown origin) incubated for 30 mins in presence of ATP by luminescence based ADP-Glo kinase assay).
T1 sequence (P53396 whole entry): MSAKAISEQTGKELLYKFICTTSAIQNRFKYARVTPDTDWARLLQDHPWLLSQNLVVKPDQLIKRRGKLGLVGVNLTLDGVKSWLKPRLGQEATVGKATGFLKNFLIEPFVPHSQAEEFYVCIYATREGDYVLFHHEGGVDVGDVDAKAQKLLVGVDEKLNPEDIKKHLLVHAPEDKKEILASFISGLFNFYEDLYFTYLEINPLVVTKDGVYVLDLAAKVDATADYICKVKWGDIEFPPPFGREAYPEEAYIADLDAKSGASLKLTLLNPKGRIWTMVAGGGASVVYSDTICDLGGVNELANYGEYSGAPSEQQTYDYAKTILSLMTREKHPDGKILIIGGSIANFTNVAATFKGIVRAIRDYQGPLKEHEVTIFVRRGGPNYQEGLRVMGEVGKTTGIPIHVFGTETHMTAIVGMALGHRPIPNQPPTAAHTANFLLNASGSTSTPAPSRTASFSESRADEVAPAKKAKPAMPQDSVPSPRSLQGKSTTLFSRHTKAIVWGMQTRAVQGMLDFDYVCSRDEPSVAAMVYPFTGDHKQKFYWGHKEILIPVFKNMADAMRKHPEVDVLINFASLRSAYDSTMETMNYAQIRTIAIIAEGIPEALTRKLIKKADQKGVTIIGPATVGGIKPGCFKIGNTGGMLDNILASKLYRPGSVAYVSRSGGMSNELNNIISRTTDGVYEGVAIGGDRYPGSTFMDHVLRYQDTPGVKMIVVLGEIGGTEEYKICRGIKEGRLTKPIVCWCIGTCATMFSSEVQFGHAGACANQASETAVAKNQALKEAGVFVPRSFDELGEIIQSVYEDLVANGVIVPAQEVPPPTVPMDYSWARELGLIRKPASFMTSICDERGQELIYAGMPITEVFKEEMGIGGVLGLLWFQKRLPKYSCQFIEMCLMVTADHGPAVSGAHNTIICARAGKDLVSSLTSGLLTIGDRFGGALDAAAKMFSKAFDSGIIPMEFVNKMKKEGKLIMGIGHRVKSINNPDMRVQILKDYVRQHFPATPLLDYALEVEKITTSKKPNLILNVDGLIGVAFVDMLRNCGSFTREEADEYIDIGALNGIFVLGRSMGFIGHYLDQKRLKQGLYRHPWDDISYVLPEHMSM

Structure (SMILES) | IC50 [µM]
C=C1CC[C@@](C)([C@H](C)CC(=O)C[C@@](C)(C(=O)O)[C@]2(C(=C)C)C=C3CC[C@@H]4[C@](C)(CCC[C@@]4(C)C(=O)O)[C@H]3CC2)[C@@]12CCC1=C2CC[C@H]2C(C)(C)C(=O)CC[C@]12C | 22.8
C=C1CC[C@@](C)([C@H](C)CC(=O)C[C@]2(C(=O)O)C[C@H]3C[C@@H]4[C@@]5(C)CCC[C@@](C)(C(=O)O)[C@@H]5CC[C@]42C=C3C(C)C)[C@@]12CCC1=C2CC[C@@H]2[C@@H]1CC[C@H](O)C2(C)C | 7.1
C=C1CC[C@@](C)([C@H](C)CC(=O)C[C@]2(C(=O)O)C[C@H]3C[C@@H]4[C@@]5(C)CCC[C@@](C)(C(=O)O)[C@@H]5CC[C@]42C=C3C(C)C)[C@@]12CCC1=C2CC[C@@H]2[C@@H]1CCC(=O)C2(C)C | 1.8
COc1ccc(-c2ccccc2)cc1NS(=O)(=O)c1cc(Cl)cc(Cl)c1O | 0.46
CC(C)C1=C[C@@]23CC[C@@H]4[C@](C)(CCC[C@@]4(C)C(=O)O)[C@H]2C[C@@H]1C[C@@]3(CC(=O)C[C@@H](C)[C@H]1CC[C@@]2(C)C3=C(CC[C@]12C)[C@H]1CCC(=O)C(C)(C)[C@@H]1CC3)C(=O)O | 2.6
C=C1CC[C@@H]([C@H](C)CC(=O)/C=C(\C)C(=O)O)[C@@]12CCC1=C2CC[C@H]2C(C)(C)C(=O)CC[C@]12C | 34.9
CC(C)C1=CC[C@H]2C(=C1)CC[C@@H]1[C@]2(C)CCC[C@@]1(C)C(=O)O | > 40
C=C1CC[C@@](C)([C@H](C)CC(=O)[C@H]2[C@H]3C[C@@H]4[C@@]5(C)CCC[C@@](C)(C(=O)O)[C@@H]5CC[C@@]4(C=C3C(C)C)[C@]2(C)C(=O)O)[C@@]12CCC1=C2CC[C@H]2C(C)(C)C(=O)CC[C@]12C | 4.1
C=C1CC[C@@](C)([C@H](C)CC(=O)C[C@](C)(C(=O)O)[C@]2(C(=C)C)C=C3CC[C@@H]4[C@](C)(CCC[C@@]4(C)C(=O)O)[C@H]3CC2)[C@@]12CCC1=C2CC[C@H]2C(C)(C)C(=O)CC[C@]12C | 11
C=C1CC[C@@](C)([C@H](C)CC(=O)C[C@@]2(C(=O)O)C[C@H]3C[C@@H]4[C@@]5(C)CCC[C@@](C)(C(=O)O)[C@@H]5CC[C@]42C=C3C(C)C)[C@@]12CCC1=C2CC[C@@H]2[C@@H]1CCC(=O)C2(C)C | 3.3
C=C1CC[C@@](C)([C@H](C)CC(=O)[C@@H]2[C@H]3C[C@@H]4[C@@]5(C)CCC[C@@](C)(C(=O)O)[C@@H]5CC[C@@]4(C=C3C(C)C)[C@@]2(C)C(=O)O)[C@@]12CCC1=C2CC[C@H]2C(C)(C)C(=O)CC[C@]12C | 3.6
C=C1CC[C@@](C)([C@H](C)CC(=O)[C@H]2[C@H]3C[C@@H]4[C@@]5(C)CCC[C@@](C)(C(=O)O)[C@@H]5CC[C@]45C(OC(=O)[C@]25C)C3=C(C)C)[C@@]12CCC1=C2CC[C@H]2C(C)(C)C(=O)CC[C@]12C | 10.8
CC(C)C1=C[C@@]23CC[C@@H]4[C@](C)(CCC[C@@]4(C)C(=O)O)[C@H]2C[C@@H]1[C@H](C(=O)C[C@@H](C)[C@H]1CC[C@@]2(C)C4=C(CC[C@]12C)[C@H]1CCC(=O)C(C)(C)[C@@H]1CC4)[C@@]3(C)C(=O)O | 6.2

— ChEMBL document CHEMBL5316374, “Forrestiacids E-K: Further [4 + 2]-Type Triterpene-Diterpene Hybrids as Potential ACL Inhibitors from the Vulnerable Conifer Pseudotsuga forrestii” (J Nat Prod, 2023)
